Data set [1] concerns the target CYP3A4 (Homo sapiens, UniProt P08684). The settings on record: for AUC(0-inf): AUCinf; for Tmax: tmax (median [min‐max]); for half-life: t½.
The target in data set [2] is T1, CYP2C19 (Homo sapiens, UniProt P33261). The settings on record: for AUC(0-inf): AUCinf; for half-life: t½.
In data set [3] the target is CYP2D6 (Homo sapiens, UniProt P10635). Conditions: for AUC(0-inf) / Cmax / Tmax / half-life: female, human, plasma, oral; for AUC(0-inf): AUCinf; for Tmax: tmax (median [min‐max]); for half-life: t½.
Data set [4] addresses CYP2C9 (Homo sapiens, UniProt P11712). Put plainly: Inje cocktail DDI study: losartan and EXP‐3174 PK, assessment of CYP2C9 activity. The settings on record: for AUC(0-inf) / Cmax / Tmax / half-life: female, human, plasma, oral; for AUC(0-inf): AUCinf; for Tmax: tmax (median [min‐max]); for half-life: t½.
Data set [5] deals with T1, CYP2C19. Conditions: single oral 20 mg omeprazole with 100 mg ASP8477 vs alone, female subjects; ref first‐in‐human study (8477‐CL‐0001); cited from earlier work.
[6] abbreviates: cocktail alone (day 1), mean ± SD.
[7] abbreviates: + 20 mg ASP8477 once daily (day 7), mean ± SD.
The mark [8] stands for this setting: probe dextromethorphan, + 60 mg ASP8477 once daily (day 14), mean ± SD.
Where [9] appears, read: probe dextromethorphan, + 100 mg ASP8477 once daily (day 23), mean ± SD.
Setting [10] is: probe dextromethorphan, + 20 mg ASP8477 once daily (day 7).
Setting [11] is: probe dextromethorphan, + 60 mg ASP8477 once daily (day 14).
Setting [12] is: probe dextromethorphan, + 100 mg ASP8477 once daily (day 23).
[13] abbreviates: probe dextromethorphan, + 20 mg ASP8477 once daily (day 7), mean ± SD.
Setting [14] is: + 60 mg ASP8477 once daily (day 14), mean ± SD.
Where [15] appears, read: + 100 mg ASP8477 once daily (day 23), mean ± SD.
The mark [16] stands for this setting: + 20 mg ASP8477 once daily (day 7).
Where [17] appears, read: + 60 mg ASP8477 once daily (day 14).
Setting [18] is: + 100 mg ASP8477 once daily (day 23).
Where [19] appears, read: female, human, plasma, oral, probe midazolam, + 20 mg ASP8477 once daily (day 7), mean ± SD.
The mark [20] stands for this setting: female, human, plasma, oral, probe midazolam, + 60 mg ASP8477 once daily (day 14), mean ± SD.
The mark [21] stands for this setting: female, human, plasma, oral, probe midazolam, + 100 mg ASP8477 once daily (day 23), mean ± SD.
Setting [22] is: female, human, plasma, oral, + 20 mg ASP8477 once daily (day 7), mean ± SD.
[23] abbreviates: female, human, plasma, oral, + 60 mg ASP8477 once daily (day 14), mean ± SD.
Setting [24] is: female, human, plasma, oral, cocktail alone (day 1), mean ± SD.

Structures are written as SMILES. Read-outs that look alike come from different tables or passages of the source.

Sequence of CYP2D6 (P10635 whole entry): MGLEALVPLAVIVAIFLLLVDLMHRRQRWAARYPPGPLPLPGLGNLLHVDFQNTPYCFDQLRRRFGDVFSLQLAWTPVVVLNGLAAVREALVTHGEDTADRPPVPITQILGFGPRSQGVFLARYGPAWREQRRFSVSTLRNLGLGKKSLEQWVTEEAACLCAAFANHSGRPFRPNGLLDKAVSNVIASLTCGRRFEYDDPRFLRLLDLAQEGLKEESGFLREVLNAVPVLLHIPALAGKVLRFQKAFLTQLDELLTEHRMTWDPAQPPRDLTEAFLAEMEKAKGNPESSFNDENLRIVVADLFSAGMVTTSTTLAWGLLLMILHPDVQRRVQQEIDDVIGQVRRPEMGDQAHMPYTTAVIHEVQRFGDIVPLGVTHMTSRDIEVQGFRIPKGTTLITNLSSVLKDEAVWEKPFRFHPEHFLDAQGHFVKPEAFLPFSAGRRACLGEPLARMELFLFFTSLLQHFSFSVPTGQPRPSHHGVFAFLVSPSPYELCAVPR
Sequence of CYP2C9 (P11712 whole entry): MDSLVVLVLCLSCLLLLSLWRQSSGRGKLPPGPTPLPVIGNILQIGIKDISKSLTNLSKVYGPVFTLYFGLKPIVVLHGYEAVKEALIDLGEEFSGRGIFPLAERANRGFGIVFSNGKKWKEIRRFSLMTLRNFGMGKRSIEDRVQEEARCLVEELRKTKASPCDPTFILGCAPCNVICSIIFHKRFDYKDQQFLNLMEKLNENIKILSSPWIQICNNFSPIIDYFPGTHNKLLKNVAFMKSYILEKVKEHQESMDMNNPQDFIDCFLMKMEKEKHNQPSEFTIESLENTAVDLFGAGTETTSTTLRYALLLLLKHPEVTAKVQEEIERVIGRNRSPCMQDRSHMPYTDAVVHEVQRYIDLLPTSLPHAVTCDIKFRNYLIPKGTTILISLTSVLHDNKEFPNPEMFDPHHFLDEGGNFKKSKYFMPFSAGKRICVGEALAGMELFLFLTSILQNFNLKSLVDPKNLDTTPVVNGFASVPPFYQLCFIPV
T1 sequence (P33261 whole entry): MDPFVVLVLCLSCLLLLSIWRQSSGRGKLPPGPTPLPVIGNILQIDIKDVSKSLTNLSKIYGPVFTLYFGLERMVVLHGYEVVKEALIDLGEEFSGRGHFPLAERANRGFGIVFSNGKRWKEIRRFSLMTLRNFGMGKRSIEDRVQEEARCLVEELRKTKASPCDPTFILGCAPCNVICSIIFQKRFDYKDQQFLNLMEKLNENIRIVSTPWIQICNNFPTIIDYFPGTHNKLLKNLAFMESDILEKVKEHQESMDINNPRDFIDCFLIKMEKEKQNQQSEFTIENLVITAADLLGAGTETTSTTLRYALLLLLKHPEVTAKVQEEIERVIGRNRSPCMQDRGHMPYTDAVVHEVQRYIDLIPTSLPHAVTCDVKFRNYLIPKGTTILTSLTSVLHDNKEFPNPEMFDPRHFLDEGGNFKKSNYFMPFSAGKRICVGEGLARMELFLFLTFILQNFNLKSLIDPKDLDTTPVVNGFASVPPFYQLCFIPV
Sequence of CYP3A4 (P08684 whole entry): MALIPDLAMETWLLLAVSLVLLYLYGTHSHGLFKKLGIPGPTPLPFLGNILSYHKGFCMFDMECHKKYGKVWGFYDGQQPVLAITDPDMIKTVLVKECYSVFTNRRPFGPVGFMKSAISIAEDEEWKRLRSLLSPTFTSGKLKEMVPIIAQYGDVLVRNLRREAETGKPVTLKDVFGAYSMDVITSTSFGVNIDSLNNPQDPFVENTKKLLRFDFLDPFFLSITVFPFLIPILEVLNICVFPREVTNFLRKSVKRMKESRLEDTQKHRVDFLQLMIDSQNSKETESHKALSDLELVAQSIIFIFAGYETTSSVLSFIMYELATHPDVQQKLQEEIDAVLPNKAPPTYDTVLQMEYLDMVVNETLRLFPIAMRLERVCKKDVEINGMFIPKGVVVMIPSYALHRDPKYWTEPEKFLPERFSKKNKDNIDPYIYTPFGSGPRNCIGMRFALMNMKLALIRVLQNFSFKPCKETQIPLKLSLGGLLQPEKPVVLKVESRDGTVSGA

Regarding `OCc1ncc2n1-c1ccc(Cl)cc1C(c1ccccc1F)=NC2` [1‐OH‐Midazolam, 1‐hydroxymidazolam], the “tmax (median [min‐max])” value in data set [1] (cocktail alone (day 1)) is listed as 0.52 (0.48‐1.0) h. In data set [1] (setting [6]), the AUCinf is 12 ± 6.1 ng·h/mL, the Cmax is given as 5.5 ± 3.0 ng/mL and the t½ was 7.8 ± 13 h.
As to `COc1ccc2nc([S+]([O-])Cc3ncc(CO)c(OC)c3C)[nH]c2c1` (stereo not drawn) [5‐OH‐Omeprazole, 5‐hydroxyomeprazole], the “tmax (median [min‐max])” value in data set [2] (cocktail alone (day 1)) was 2.0 (0.98‐4.0) h. In data set [2] (setting [6]), this compound yielded an AUCinf of 550 ± 130 ng·h/mL, a Cmax of 230 ± 76 ng/mL and a t½ of 1.4 ± 0.56 h.
For `COc1ccc2c(c1)[C@]13CCCC[C@@H]1[C@H](C2)N(C)CC3` [Dextromethorphan, dextromethorphan, reference compound], the CL/F in data set [3] (setting [6]) was found to be 4000 ± 3200 L/h. The AUC(0-inf) was 16 ± 12 ng·h/mL in data set [3] (setting [7]), 12 ± 7.9 ng·h/mL in data set [3] (setting [6]), 39 ± 25 ng·h/mL in data set [3] (setting [8]) and 65 ± 44 ng·h/mL in data set [3] (setting [9]). The Cmax in data set [3] (setting [7]) is 1.8 ± 1.2 ng/mL; in data set [3] (setting [6]), 1.3 ± 0.72 ng/mL; in data set [3] (setting [8]), 3.8 ± 2.3 ng/mL; in data set [3] (setting [9]), 5.6 ± 3.1 ng/mL. The Tmax in data set [3] (setting [10]) was found to be 3 h; in data set [3] (setting [11]), 3.1 h; in data set [3] (setting [12]), 3 h; in data set [3] (cocktail alone (day 1)) it was 2 h. The half-life was 7.7 ± 2.1 h in data set [3] (setting [13]), 9.3 ± 1.4 h in data set [3] (setting [8]), 9.9 ± 1.5 h in data set [3] (setting [9]) and 8 ± 2.5 h in data set [3] (setting [6]).
For the compound `CN1CC[C@@]23CCCC[C@@H]2[C@@H]1Cc1ccc(O)cc13` [Dextrorphan, dextrorphan], the AUC(0-inf) in data set [3] (setting [7]) stood at 2400 ± 420 ng·h/mL; in data set [3] (setting [6]), 2400 ± 450 ng·h/mL; in data set [3] (setting [8]) it was 2700 ± 510 ng·h/mL; in data set [3] (setting [9]) it was 3000 ± 520 ng·h/mL. Also, the Cmax is 470 ± 110 ng/mL in data set [3] (setting [7]), 490 ± 133 ng/mL in data set [3] (setting [6]), 430 ± 110 ng/mL in data set [3] (setting [8]) and 400 ± 100 ng/mL in data set [3] (setting [9]). Besides, the Tmax turned out to be 2 h in data set [3] (setting [10]), 3.1 h in data set [3] (setting [11]), 3 h in data set [3] (setting [12]) and 2 h in data set [3] (cocktail alone (day 1)). Besides, the half-life in data set [3] (setting [13]) was 6.5 ± 1.7 h; in data set [3] (setting [8]) it was 8.8 ± 2.1 h; in data set [3] (setting [9]), 9.9 ± 2.4 h; in data set [3] (setting [6]), 5.8 ± 1.2 h.
On to `CCCCc1nc(Cl)c(C(=O)O)n1Cc1ccc(-c2ccccc2-c2nn[nH]n2)cc1` [EXP‐3174, losartan acid], for which the AUC(0-inf) in data set [4] (setting [7]) was 1100 ± 280 ng·h/mL; in data set [4] (setting [14]) it was 960 ± 240 ng·h/mL; in data set [4] (setting [15]), 780 ± 250 ng·h/mL; in data set [4] (setting [6]), 1100 ± 370 ng·h/mL. Besides, the Cmax in data set [4] (setting [7]) stood at 96 ± 48 ng/mL; in data set [4] (setting [14]), 54 ± 26 ng/mL; in data set [4] (setting [15]), 35 ± 19 ng/mL; in data set [4] (setting [6]), 100 ± 65 ng/mL. In addition, the Tmax was 5 h in data set [4] (setting [16]), 8 h in data set [4] (setting [17]), 8.1 h in data set [4] (setting [18]) and 4 h in data set [4] (cocktail alone (day 1)). Also, the half-life in data set [4] (setting [7]) was 8.8 ± 3.5 h; in data set [4] (setting [14]), 13 ± 3.7 h; in data set [4] (setting [15]), 12 ± 2.5 h; in data set [4] (setting [6]) it was 8 ± 0.64 h.
`CCCCc1nc(Cl)c(CO)n1Cc1ccc(-c2ccccc2-c2nn[nH]n2)cc1` [Losartan, losartan, reference compound] yielded a CL/F in data set [4] (setting [6]) of 140 ± 61 L/h. The AUC(0-inf) in data set [4] (setting [7]) stood at 230 ± 100 ng·h/mL; in data set [4] (setting [14]), 320 ± 140 ng·h/mL; in data set [4] (setting [15]), 410 ± 180 ng·h/mL; in data set [4] (setting [6]), 220 ± 100 ng·h/mL. For the same compound, the Cmax in data set [4] (setting [7]) amounted to 78 ± 37 ng/mL; in data set [4] (setting [14]) it was 81 ± 59 ng/mL; in data set [4] (setting [15]), 80 ± 64 ng/mL; in data set [4] (setting [6]) it was 64 ± 33 ng/mL. The Tmax in data set [4] (setting [16]) is 0.52 h; in data set [4] (setting [17]), 0.52 h; in data set [4] (setting [18]), 0.5 h; in data set [4] (cocktail alone (day 1)) it was 1 h. Moreover, the half-life in data set [4] (setting [7]) was 4 ± 2.2 h; in data set [4] (setting [14]) it was 5 ± 2.2 h; in data set [4] (setting [15]) it was 7.6 ± 3.3 h; in data set [4] (setting [6]) it was 3.7 ± 2.5 h.
Regarding `Cc1ncc2n1-c1ccc(Cl)cc1C(c1ccccc1F)=NC2` [Midazolam, midazolam], the CL/F in data set [1] (setting [6]) stood at 66 ± 15 L/h. In addition, the AUC(0-inf) worked out at 38 ± 11 ng·h/mL in data set [1] (setting [19]), 49 ± 15 ng·h/mL in data set [1] (setting [20]) and 51 ± 15 ng·h/mL in data set [1] (setting [21]). Besides, the Cmax in data set [1] (female, human, plasma, oral, probe midazolam, Cmax, + 20 mg ASP8477 once daily (day 7), mean ± SD) came to 16 ± 5.7 ng/mL; in data set [1] (female, human, plasma, oral, probe midazolam, Cmax, + 60 mg ASP8477 once daily (day 14), mean ± SD), 20 ± 5.1 ng/mL; in data set [1] (female, human, plasma, oral, probe midazolam, Cmax, + 100 mg ASP8477 once daily (day 23), mean ± SD), 21 ± 5.1 ng/mL. In addition, the Tmax is 0.52 h in data set [1] (female, human, plasma, oral, probe midazolam, + 20 mg ASP8477 once daily (day 7)); 0.52 h in data set [1] (female, human, plasma, oral, probe midazolam, + 60 mg ASP8477 once daily (day 14)); 0.5 h in data set [1] (female, human, plasma, oral, probe midazolam, + 100 mg ASP8477 once daily (day 23)); 0.52 h in data set [1] (female, human, plasma, oral, probe midazolam, cocktail alone (day 1)). The half-life in data set [1] (setting [19]) is 5 ± 0.93 h; in data set [1] (setting [20]), 5.1 ± 0.95 h; in data set [1] (setting [21]), 5.1 ± 1.2 h.
In the case of `COc1ccc2[nH]c([S+]([O-])Cc3ncc(C)c(OC)c3C)nc2c1` (stereo not drawn) [Omeprazole, omeprazole], the “increase of omeprazole AUCinf” value in data set [5] is recorded as 7 fold. Moreover, the “increase of omeprazole Cmax” value in data set [5] was 3.5 fold. In data set [2] (setting [6]), this compound yielded a CL/F of 40 ± 20 L/h. Moreover, the AUC(0-inf) was 1200 ± 520 ng·h/mL in data set [2] (setting [22]); 2500 ± 680 ng·h/mL in data set [2] (setting [23]); 3300 ± 1100 ng·h/mL in data set [2] (female, human, plasma, oral, + 100 mg ASP8477 once daily (day 23), mean ± SD); 630 ± 300 ng·h/mL in data set [2] (setting [24]). Moreover, the Cmax in data set [2] (female, human, plasma, oral, Cmax, + 20 mg ASP8477 once daily (day 7), mean ± SD) was 640 ± 190 ng/mL; in data set [2] (female, human, plasma, oral, Cmax, + 60 mg ASP8477 once daily (day 14), mean ± SD), 910 ± 260 ng/mL; in data set [2] (female, human, plasma, oral, Cmax, + 100 mg ASP8477 once daily (day 23), mean ± SD), 1100 ± 250 ng/mL; in data set [2] (female, human, plasma, oral, Cmax, cocktail alone (day 1), mean ± SD), 320 ± 150 ng/mL. Further, the half-life was 0.77 ± 0.2 h in data set [2] (setting [22]), 1.1 ± 0.25 h in data set [2] (setting [23]) and 0.79 ± 0.17 h in data set [2] (setting [24]).

What is called Cmax is the peak of the concentration-time curve. As a reminder, the t½ is how long it takes for the measured level to halve. Read a high t½ as slow decline. For orientation: CL/F means clearance divided by bioavailability, as obtained after extravascular dosing. In general, AUC(0-inf) refers to total exposure, with the tail of the curve extrapolated. In general, Tmax refers to the time from dosing to the highest level. A word on the half-life: it is how long it takes for the measured level to halve.
